Data as given in patent US8188135B2, “Compounds as cannabinoid receptor ligands” (priority 2008, dated 2012).
Like-named read-outs stand apart in the source and are kept apart here.

Assays:
human CB2 receptors = target: T1, human CB2 receptors (Homo sapiens, UniProt P34972); test: human CB2 radioligand binding assay ([3H]CP 55,940 competition); conditions: HEK293 membranes, 0.5 nM [3H]CP 55,940
T1 construct: expressed in transfected cells; host or cells: HEK293
Method: (§1) The CB1 and CB2 radioligand binding assays described herein are utilized to ascertain the affinity of compounds of the present application for binding to CB2 relative to CB1 receptors.
HEK293 cells stably expressing human CB2 receptors were grown until a confluent monolayer was formed. Briefly, the cells were harvested and homogenized in TE buffer (50 mM Tris-HCl, 1 mM MgCl2, and 1 mM EDTA) using a polytron for 2×10 second bursts in the presence of protease inhibitors, followed by centrifugation at 45,000×g for 20 minutes. The final membrane pellet was re-homogenized in storage buffer (50 mM Tris-HCl, 1 mM MgCl2, and 1 mM EDTA and 10% sucrose) and frozen at −78° C. until used. Saturation binding reactions were initiated by the addition of membrane preparation (protein concentration of 5 μg/well for human CB2) into wells of a deep well plate containing [^3H]CP 55,940 (120 Ci/mmol, a nonselective CB agonist commercially available from Tocris) in assay buffer (50 mM Tris, 2.5 mM EDTA, 5 mM MgCl2, and 0.5 mg/mL fatty acid free BSA, pH 7.4). After 90 min incubation at 30° C., binding reaction was terminated by the addition of 300 μL/well of cold assay buffer followed by rapid vacuum filtration through a UniFilter-96 GF/C filter plates (pre-soaked in 1 mg/mL BSA for 2 hours). The bound activity was counted in a TopCount using Microscint-20. Saturation experiments were conducted with twelve concentrations of [^3H]CP 55,940 ranging from 0.01 to 8 nM. Competition experiments were conducted with 0.5 nM [^3H]CP 55,940 and five concentrations (0.01 nM to 10 μM) of displacing ligands. The addition of 10 μM unlabeled CP 55,940 (Tocris, Ellisville, Mo.) was used to assess nonspecific binding.

rat CB2 = target: T2, rat CB2 (Rattus norvegicus, UniProt Q9QZN9); test: rat CB2 radioligand binding assay ([3H]CP 55,940 competition); parameters: expressed in transfected cells; host or cells: HEK293; conditions: HEK293 membranes, 0.5 nM [3H]CP 55,940
T2 sequence (Q9QZN9 1-360): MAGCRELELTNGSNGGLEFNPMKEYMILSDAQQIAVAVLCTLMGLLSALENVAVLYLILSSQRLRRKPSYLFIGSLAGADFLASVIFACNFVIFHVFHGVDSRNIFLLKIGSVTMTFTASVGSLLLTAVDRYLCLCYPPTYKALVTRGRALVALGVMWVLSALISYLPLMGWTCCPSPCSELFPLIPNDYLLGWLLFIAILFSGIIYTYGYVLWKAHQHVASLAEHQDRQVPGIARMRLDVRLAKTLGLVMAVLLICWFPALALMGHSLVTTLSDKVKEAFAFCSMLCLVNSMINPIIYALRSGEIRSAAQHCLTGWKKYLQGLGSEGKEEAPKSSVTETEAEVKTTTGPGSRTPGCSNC
Method: as §1
HEK293 cells stably expressing rat CB2 receptors were grown until a confluent monolayer was formed. Briefly, the cells were harvested and homogenized in TE buffer (50 mM Tris-HCl, 1 mM MgCl2, and 1 mM EDTA) using a polytron for 2×10 second bursts in the presence of protease inhibitors, followed by centrifugation at 45,000×g for 20 minutes. The final membrane pellet was re-homogenized in storage buffer (50 mM Tris-HCl, 1 mM MgCl2, and 1 mM EDTA and 10% sucrose) and frozen at −78° C. until used. Saturation binding reactions were initiated by the addition of membrane preparation (protein concentration of 20 μg/well for rat CB2) into wells of a deep well plate containing [^3H]CP 55,940 (120 Ci/mmol, a nonselective CB agonist commercially available from Tocris) in assay buffer (50 mM Tris, 2.5 mM EDTA, 5 mM MgCl2, and 0.5 mg/mL fatty acid free BSA, pH 7.4). After 45 min incubation at 30° C., binding reaction was terminated by the addition of […] of cold assay buffer followed by rapid vacuum filtration through a UniFilter-96 GF/C filter plates (pre-soaked in 1 mg/mL BSA for 2 hours). The bound activity was counted in a TopCount using Microscint-20. Saturation experiments were conducted with twelve concentrations of [^3H]CP 55,940 ranging from 0.01 to 8 nM. Competition experiments were conducted with 0.5 nM [^3H]CP 55,940 and five concentrations of displacing ligands selected from the range of 0.01 nM to 10 μM. The addition of 10 μM unlabeled CP 55,940 (Tocris, Ellisville, Mo.) was used to assess nonspecific binding.

T1 sequence (P34972 whole entry): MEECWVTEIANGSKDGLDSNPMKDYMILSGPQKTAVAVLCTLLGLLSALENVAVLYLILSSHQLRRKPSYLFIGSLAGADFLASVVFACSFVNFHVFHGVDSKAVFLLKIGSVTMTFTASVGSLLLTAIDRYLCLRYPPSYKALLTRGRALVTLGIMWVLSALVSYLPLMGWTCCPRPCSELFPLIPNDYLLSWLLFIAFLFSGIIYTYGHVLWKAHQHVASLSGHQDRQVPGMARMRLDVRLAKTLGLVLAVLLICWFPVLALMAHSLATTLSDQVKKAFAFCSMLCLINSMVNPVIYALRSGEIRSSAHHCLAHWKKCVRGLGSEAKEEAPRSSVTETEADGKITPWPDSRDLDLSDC

## Cn1c(C(C)(C)C)c/c(=N\C(=O)c2cc(C(F)(F)F)ccc2OCC2(C)COC2)n1C[C@H]1CCCO1 [Example 19, N-{(3E)-5-tert-butyl-1-methyl-2-[(2R)-tetrahydrofuran-2-ylmethyl]-1,2-dihydro-3H-pyrazol-3-ylidene}-2-[3-methyloxetan-3-methoxyl]-5-(trifluoromethyl)benzamide]
Human CB2 receptors; human CB2 (Ki, nM)
  Ki: > 1000 nM
Rat CB2; rat CB2 (Ki, nM)
  Ki: 323 nM

## CO[C@H]1CCO[C@@H]1COc1ccc(C(F)(F)F)cc1C(=O)/N=c1\cc(C(C)(C)C)n(C)n1C[C@H]1CCCO1 [Example 22]
Human CB2 receptors; read-out: human CB2 (Ki)
  Ki: > 1000 nM
Rat CB2; read-out: rat CB2 (Ki)
  Ki: 424 nM

## CN(C[C@@H]1CCCO1)c1ccc(C(F)(F)F)cc1C(=O)/N=c1\cc(C(C)(C)C)n(C)n1C[C@H]1CCCO1 [Example 26, N-{(3E)-5-tert-butyl-1-methyl-2-[(2R)-tetrahydrofuran-2-ylmethyl-]-1,2-dihydro-3H-pyrazol-3-ylidene}-2-{methyl[(2S)-tetrahydrofuran-2-ylmethyl]amino}-5-(trifluoromethyl)benzamide]
Human CB2 receptors; human CB2 (Ki, nM)
  Ki: > 1000 nM
Rat CB2; rat CB2 (Ki, nM)
  Ki: 343 nM

## CC1=NOC(Cn2/c(=N/C(=O)c3cc(C(F)(F)F)ccc3OC[C@@H]3CCCO3)cc(C(C)(C)C)n2C)C1 (stereo partly drawn) [Example 31, N-{(3E)-5-tert-butyl-1-methyl-2-[(3-methyl-4,5-dihydroisoxazol-5-yl)methyl]-1,2-dihydro-3H-pyrazol-3-ylidene}-2-[(2S)-tetrahydrofuran-2-ylmethoxy]-5-(trifluoromethyl)benzamide]
Human CB2 receptors; human CB2 (Ki, nM)
  Ki: 239 nM
Rat CB2; rat CB2 (Ki, nM)
  Ki: 63 nM

## Cn1c(C(C)(C)C)c/c(=N\C(=O)c2cc(C(F)(F)F)ccc2OCc2ccccn2)n1C[C@H]1CCCO1 [Example 38, N-{(3E)-5-tert-butyl-1-methyl-2-[(2R)-tetrahydrofuran-2-ylmethyl]-1,2-dihydro-3H-pyrazol-3-ylidene}-2-(pyridin-2-ylmethoxy)-5-(trifluoromethyl)benzamide]
Human CB2 receptors; read-out: human CB2 (Ki)
  Ki: > 1000 nM
Rat CB2; rat CB2 (Ki, nM)
  Ki: 26 nM

## C[C@H](c1ccccc1)N1C[C@@H](COc2ccc(C(F)(F)F)cc2C(=O)/N=c2\cc(C(C)(C)C)n(C)n2C[C@H]2CCCO2)OC1=O [Example 44, N-{(3E)-5-tert-butyl-1-methyl-2-[(2R)-tetrahydrofuran-2-ylmethyl]-1,2-dihydro-3H-pyrazol-3-ylidene}-2-({(5 S)-2-oxo-3-[(1R)-1-phenylethyl]-1,3-oxazolidin-5-yl}methoxy)-5-(trifluoromethyl)benzamide]
Human CB2 receptors; human CB2 (Ki, nM)
  Ki: > 1000 nM
Rat CB2; rat CB2 (Ki, nM)
  Ki: 408 nM

## Cn1c(C(C)(C)C)c/c(=N\C(=O)c2cc(C(F)(F)F)ccc2OCCN2CCNC2=O)n1C[C@H]1CCCO1 [Example 48, N-{(3E)-5-tert-butyl-1-methyl-2-[(2R)-tetrahydrofuran-2-ylmethyl]-1,2-dihydro-3H-pyrazol-3-ylidene}-2-[2-(2-oxoimidazolidin-1-yl)ethoxy]-5-(trifluoromethyl)benzamide]
Human CB2 receptors; read-out: human CB2 (Ki)
  Ki: 251 nM
Rat CB2; rat CB2 (Ki, nM)
  Ki: 53 nM

## Cn1c(C(C)(C)C)c/c(=N\C(=O)c2cc(C(F)(F)F)ccc2OCC2CN(S(C)(=O)=O)C2)n1C[C@H]1CCCO1 [Example 54, N-{(3E)-5-tert-butyl-1-methyl-2-[(2R)-tetrahydrofuran-2-ylmethyl]-1,2-dihydro-3H-pyrazol-3-ylidene}-2-{[1-(methylsulfonyl)azetidin-3-yl]methoxy}-5-(trifluoromethyl)benzamide]
Human CB2 receptors; read-out: human CB2 (Ki)
  Ki: 192 nM
Rat CB2; rat CB2 (Ki, nM)
  Ki: 71 nM

## Cn1c(C(C)(C)C)c/c(=N\C(=O)c2cc(C(F)(F)F)ccc2OCC(C)(C)OCc2ccccc2)n1C[C@H]1CCCO1 [Example 55, 2-[2-(benzyloxy)-2-methylpropoxy]-N-{(3E)-5-tert-butyl-1-methyl-2-[(2R)-tetrahydrofuran-2-ylmethyl]-1,2-dihydro-3H-pyrazol-3-ylidene}-5-(trifluoromethyl)benzamide]
Human CB2 receptors; human CB2 (Ki, nM)
  Ki: > 1000 nM
Rat CB2; rat CB2 (Ki, nM)
  Ki: 458 nM

## CN1CCC[C@H]1COc1ccc(C(F)(F)F)cc1C(=O)/N=c1\ccc(C(C)(C)C)cn1C[C@H]1CCCO1 [Example 59, N-[(2E)-5-tert-butyl-1-[(2R)-tetrahydrofuran-2-ylmethyl]pyridin-2(1H)-ylidene]-2-{[(2S)-1-methylpyrrolidin-2-yl]methoxy}-5-(trifluoromethyl)benzamide]
Human CB2 receptors; human CB2 (Ki, nM)
  Ki: 294 nM
Rat CB2; rat CB2 (Ki, nM)
  Ki: 69 nM

## Cn1c(C(C)(C)C)c/c(=N\C(=O)c2cc(C(F)(F)F)ccc2OC[C@@H]2CCCN2S(C)(=O)=O)n1C[C@H]1CCCO1 [Example 61, N-{(3E)-5-tert-butyl-1-methyl-2-[(2R)-tetrahydrofuran-2-ylmethyl]-1,2-dihydro-3 H-pyrazol-3-ylidene}-2-{[(2S)-1-(methylsulfonyl)pyrrolidin-2-yl]methoxy}-5-(trifluoromethyl)benzamide]
Human CB2 receptors; human CB2 (Ki, nM)
  Ki: > 1000 nM
Rat CB2; rat CB2 (Ki, nM)
  Ki: 433 nM

## CSC(C)(C)COc1ccc(C(F)(F)F)cc1C(=O)/N=c1\cc(C(C)(C)C)n(C)n1C[C@H]1CCCO1 [Example 64, N-{(3E)-5-tert-butyl-1-methyl-2-[(2R)-tetrahydrofuran-2-ylmethyl]-1,2-dihydro-3H-pyrazol-3-ylidene}-2-[2-methyl-2-(methylthio)propoxy]-5-(trifluoromethyl)benzamide]
Human CB2 receptors; read-out: human CB2 (Ki)
  Ki: 328 nM
Rat CB2; read-out: rat CB2 (Ki)
  Ki: 114 nM

## Cn1c(C(C)(C)C)c/c(=N\C(=O)c2cc(C(F)(F)F)ccc2OCC(C)(C)S(C)(=O)=O)n1C[C@H]1CCCO1 [Example 65, N-{(3E)-5-tert-butyl-1-methyl-2-[(2R)-tetrahydrofuran-2-ylmethyl]-1,2-dihydro-3H-pyrazol-3-ylidene}-2-[2-methyl-2-(methylsulfonyl)propoxy]-5-(trifluoromethyl)benzamide]
Human CB2 receptors; read-out: human CB2 (Ki)
  Ki: > 1000 nM
Rat CB2; read-out: rat CB2 (Ki)
  Ki: > 1000 nM

## Cn1c(C(C)(C)C)c/c(=N\C(=O)c2cc(C(F)(F)F)ccc2OC[C@@H]2CCN2S(C)(=O)=O)n1C[C@H]1CCCO1 [Example 67, N-{(3E)-5-tert-butyl-1-methyl-2-[(2R)-tetrahydrofuran-2-ylmethyl]-1,2-dihydro-3H-pyrazol-3-ylidene}-2-{[(2S)-1-(methylsulfonyl)azetidin-2-yl]methoxy}-5-(trifluoromethyl)benzamide]
Human CB2 receptors; human CB2 (Ki, nM)
  Ki: > 1000 nM
Rat CB2; rat CB2 (Ki, nM)
  Ki: 70 nM

## CN1CCC[C@H]1COc1ccc(C(F)(F)F)cc1C(=O)/N=C1\OC(C(C)(C)C)CN1C[C@H]1CCCO1 (stereo partly drawn) [Example 73, N-{(2Z)-5-tert-butyl-3-[(2R)-tetrahydrofuran-2-ylmethyl]-1,3-oxazolidin-2-ylidene}-2-{[(2S)-1-methylpyrrolidin-2-yl]methoxy}-5-(trifluoromethyl)benzamide]
Human CB2 receptors; read-out: human CB2 (Ki)
  Ki: 291 nM
Rat CB2; read-out: rat CB2 (Ki)
  Ki: 230 nM

## C/C(COc1ccc(C(F)(F)F)cc1C(=O)/N=c1\cc(C(C)(C)C)n(C)n1C[C@H]1CCCO1)=N\OC1CCCCO1 (stereo partly shown) [Example 79]
Human CB2 receptors; read-out: human CB2 (Ki)
  Ki: > 1000 nM
Rat CB2; read-out: rat CB2 (Ki)
  Ki: 128 nM

## Cn1c(C(C)(C)C)c/c(=N\C(=O)c2cc(C(F)(F)F)ccc2OCC2CCSCC2)n1C[C@H]1CCCO1 [Example 80, N-{(3E)-5-tert-butyl-1-methyl-2-[(2R)-tetrahydrofuran-2-ylmethyl]-1,2-dihydro-3 H-pyrazol-3-ylidene}-2-(tetrahydro-2H-thiopyran-4-ylmethoxy)-5-(trifluoromethyl)benzamide]
Human CB2 receptors; read-out: human CB2 (Ki)
  Ki: 126 nM
Rat CB2; rat CB2 (Ki, nM)
  Ki: 75 nM
